Measured values taken from patent US20250115620A1, “BRIDGED TRICYCLIC CARBAMOYLPYRIDONE COMPOUNDS AND USES THEREOF” (Gilead Sciences, Inc., priority 2022, published 2025).
Read-outs that look alike come from different tables or passages of the source.

How the values were obtained:
in vitro = conditions: human; for CC50 at 5 days: uninfected MT-4 cells
pLAI reporter virus = test: microbe, parasite or virus in culture; type: cell-based, HIV; conditions: Human immunodeficiency virus 1, MT4, 72 h
HIV-1 (IIIB) = test: microbe, parasite or virus in culture; type: cell-based; conditions: Human immunodeficiency virus 1, IIIB, MT4, 120 h, read-out: MT4 EC50
[1] = HIV-1 (IIIB) in MT-4 cells, 5 days incubation, Cell Titer Glo

| Compound | CC50 at 5 days (in vitro) [µM] | EC50 (pLAI reporter virus; read-out: RLUC 50% HS EC50) [nM] | EC50 (pLAI reporter virus; read-out: RLUC CCM EC50) [nM] | EC50 (HIV-1 (IIIB)) [nM] | EC50 (HIV-1 (IIIB); [1]) [nM] | CC50 (in vitro) [µM] |
| --- | --- | --- | --- | --- | --- | --- |
| C[C@H]1CC[C@]2(CC(Cl)=NO2)[C@H]2CN1C(=O)c1c(O)c(=O)c(C(=O)NCc3c(F)cc(F)cc3F)cn12 [Example 53, (3′S,5S,7′R)-3-chloro-12′-hydroxy-3′-methyl-1′,11′-dioxo-N-(2,4,6-trifluorobenzyl)-1′,4′,5′,11′-tetrahydro-3′H,4H,7′H-spiro[isoxazole-5,6′-[2,7]methanopyrido[1,2-a][1,4]diazonine]-10′-carboxamide] | 9.47 | 166 | 0.3 | 1.7 | – | – |
| CC1=NO[C@@]2(CC[C@H](CF)N3C[C@H]2n2cc(C(=O)NCc4c(F)cc(F)cc4F)c(=O)c(O)c2C3=O)C1 [Example 54, (3′R,5S,7′R)-3′-(fluoromethyl)-12′-hydroxy-3-methyl-1′,11′-dioxo-N-(2,4,6-trifluorobenzyl)-1′,4′,5′,11′-tetrahydro-3′H,4H,7′H-spiro[isoxazole-5,6′-[2,7]methanopyrido[1,2-a][1,4]diazonine]-10′-carboxamide] | 27.3 | 53.7 | 0.3 | – | 0.7 | – |
| C[C@H]1CC[C@@]2(CCO2)[C@H]2CN1C(=O)c1c(O)c(=O)c(C(=O)NCc3c(F)cc(F)cc3F)cn12 [Example 55, (2R,3′S,7′R)-12′-hydroxy-3′-methyl-1′,11′-dioxo-N-(2,4,6-trifluorobenzyl)-1′,4′,5′,11′-tetrahydro-3′H,7′H-spiro[oxetane-2,6′-[2,7]methanopyrido[1,2-a][1,4]diazonine]-10′-carboxamide] | ≥ 50 | 51 | 1.1 | – | 1.7 | – |
| CC1=NCC2(CC[C@H](C)N3C[C@H]2n2cc(C(=O)NCc4ccc(F)cc4F)c(=O)c(O)c2C3=O)O1 (stereo partly drawn) [Example 56, (3′S,7′R)—N-(2,4-difluorobenzyl)-12′-hydroxy-2,3′-dimethyl-1′,11′-dioxo-1′,4′,5′,11′-tetrahydro-3′H,4H,7′H-spiro[oxazole-5,6′-[2,7]methanopyrido[1,2-a][1,4]diazonine]-10′-carboxamide] | ≥ 50 | 5 | 3.4 | – | 6.2 | – |
| C[C@H]1CC[C@@]2(CNC(=O)C2)[C@H]2CN1C(=O)c1c(O)c(=O)c(C(=O)NCc3c(F)cc(F)cc3F)cn12 [Example 57, (3R,3′S, 7′S)-12′-hydroxy-3′-methyl-1′,5,11′-trioxo-N-(2,4,6-trifluorobenzyl)-1′,4′,5′,11′-tetrahydro-3′H, 7′H-spiro[pyrrolidine-3,6′-[2,7]methanopyrido[ ],2-a][1,4]diazonine-10′-carboxamide] | – | 6 | 13.8 | 27.9 | – | ≥ 50 |
| C[C@H]1CC[C@@]2(CN(C)C(=O)O2)[C@H]2CN1C(=O)c1c(O)c(=O)c(C(=O)NCc3c(F)cc(F)cc3F)cn12 [Example 60, (3′S,5R,7′R)-12′-hydroxy-3,3′-dimethyl-1′,2,11′-trioxo-N-(2,4,6-trifluorobenzyl)-1′,4′,5′,11′-tetrahydro-3′H,7′H-spiro[oxazolidine-5,6′-[2,7]methanopyrido[1,2-a][1,4]diazonine]-10′-carboxamide] | ≥ 50 | 31.2 | 25.2 | – | 78.6 | – |
| C[C@H]1CC[C@]2(CC(=O)N(C)C2)[C@H]2CN1C(=O)c1c(O)c(=O)c(C(=O)NCc3c(F)cc(F)cc3F)cn12 [Example 61, (3R,3′S,7′S)-12′-hydroxy-1,3′-dimethyl-1′,5,11′-trioxo-N-(2,4,6-trifluorobenzyl)-1′,4′,5′,11′-tetrahydro-3′H,7′H-spiro[pyrrolidine-3,6′-[2,7]methanopyrido[1,2-a][1,4]diazonine]-10′-carboxamide] | ≥ 50 | 3.4 | 1.9 | – | 7.6 | – |
| C[C@H]1CC[C@@]2(CC(=O)N(C)C2)[C@H]2CN1C(=O)c1c(O)c(=O)c(C(=O)NCc3c(F)cc(F)cc3F)cn12 [Example 62, (3S,3′S,7′S)-12′-hydroxy-1,3′-dimethyl-1′,5,11′-trioxo-N-(2,4,6-trifluorobenzyl)-1′,4′,5′,11′-tetrahydro-3′H,7′H-spiro[pyrrolidine-3,6′-[2,7]methanopyrido[1,2-a][1,4]diazonine]-10′-carboxamide] | ≥ 50 | 13.4 | 7.8 | – | 31.1 | – |
| CCN1C[C@@]2(CC[C@H](C)N3C[C@H]2n2cc(C(=O)NCc4c(F)cc(F)cc4F)c(=O)c(O)c2C3=O)OC1=O [Example 63, (3′S,5R,7′R)-3-ethyl-12′-hydroxy-3′-methyl-1′,2,11′-trioxo-N-(2,4,6-trifluorobenzyl)-1′,4′,5′,11′-tetrahydro-3′H,7′H-spiro[oxazolidine-5,6′-[2,7]methanopyrido[1,2-a][1,4]diazonine]-10′-carboxamide] | ≥ 50 | 15.5 | 11.1 | – | 45.9 | – |
| COC1=NO[C@@]2(CC[C@H](C)N3C[C@H]2n2cc(C(=O)NCc4ncc(F)c(Cl)c4F)c(=O)c(O)c2C3=O)C1 [Example 64, (3′S,5S,7′R)—N-((4-chloro-3,5-difluoropyridin-2-yl)methyl)-12′-hydroxy-3-methoxy-3′-methyl-1′,11′-dioxo-1′,4′,5′,11′-tetrahydro-3′H,4H,7′H-spiro[isoxazole-5,6′-[2,7]methanopyrido[1,2-a][1,4]diazonine]-10′-carboxamide] | 22.9 | 300 | 0.6 | 2.9 | – | – |
| COC1=NO[C@@]2(CC[C@H](C)N3C[C@H]2n2cc(C(=O)NCc4cc(F)c(F)cc4F)c(=O)c(O)c2C3=O)C1 [Example 65, (3′S,5S,7′R)-12′-hydroxy-3-methoxy-3′-methyl-1′,11′-dioxo-N-(2,4,5-trifluorobenzyl)-1′,4′,5′,11′-tetrahydro-3′H,4H,7′H-spiro[isoxazole-5,6′-[2,7]methanopyrido[1,2-a][1,4]diazonine]-10′-carboxamide] | 26.3 | 107 | 0.6 | – | 1.6 | – |
| C[C@H]1CC[C@]2(CC(CF)=NO2)[C@H]2CN1C(=O)c1c(O)c(=O)c(C(=O)NCc3ncc(F)c(Cl)c3F)cn12 [Example 66, (3′S,5S,7′R)—N-((4-chloro-3,5-difluoropyridin-2-yl)methyl)-3-(fluoromethyl)-12′-hydroxy-3′-methyl-1′,11′-dioxo-1′,4′,5′,11′-tetrahydro-3′H,4H,7′H-spiro[isoxazole-5,6′-[2,7]methanopyrido[1,2-a][1,4]diazonine]-10′-carboxamide] | 30.1 | 561 | 0.8 | – | 3.9 | – |
| CCC1=NO[C@@]2(CC[C@H](C)N3C[C@H]2n2cc(C(=O)NCc4c(F)cc(F)cc4F)c(=O)c(O)c2C3=O)C1 [Example 67, (3′S,5S,7′R)-3-ethyl-12′-hydroxy-3′-methyl-1′,11′-dioxo-N-(2,4,6-trifluorobenzyl)-1′,4′,5′,11′-tetrahydro-3′H,4H,7′H-spiro[isoxazole-5,6′-[2,7]methanopyrido[1,2-a][1,4]diazonine]-10′-carboxamide] | 20 | 190 | 0.3 | – | 1.3 | – |
| CCCC1=NO[C@@]2(CC[C@H](C)N3C[C@H]2n2cc(C(=O)NCc4c(F)cc(F)cc4F)c(=O)c(O)c2C3=O)C1 [Example 68, (3′S,5S,7′R)-12′-hydroxy-3′-methyl-1′,11′-dioxo-3-propyl-N-(2,4,6-trifluorobenzyl)-1′,4′,5′,11′-tetrahydro-3′H,4H,7′H-spiro[isoxazole-5,6′-[2,7]methanopyrido[1,2-a][1,4]diazonine]-10′-carboxamide] | 15.7 | 85.4 | 0.3 | – | 1.2 | – |
| C[C@H]1CC[C@]2(CC(CCF)=NO2)[C@H]2CN1C(=O)c1c(O)c(=O)c(C(=O)NCc3c(F)cc(F)cc3F)cn12 [Example 69, (3′S,5S,7′R)-3-(2-fluoroethyl)-12′-hydroxy-3′-methyl-1′,11′-dioxo-N-(2,4,6-trifluorobenzyl)-1′,4′,5′,11′-tetrahydro-3′H,4H,7′H-spiro[isoxazole-5,6′-[2,7]methanopyrido[1,2-a][1,4]diazonine]-10′-carboxamide] | 26.3 | 94.1 | 0.2 | – | 1.3 | – |
| C[C@@H](F)C1=NO[C@@]2(CC[C@H](C)N3C[C@H]2n2cc(C(=O)NCc4c(F)cc(F)cc4F)c(=O)c(O)c2C3=O)C1 [Example 70, (3′S,5S,7′R)-3-((R)-1-fluoroethyl)-12′-hydroxy-3′-methyl-1′,11′-dioxo-N-(2,4,6-trifluorobenzyl)-1′,4′,5′,11′-tetrahydro-3′H,4H,7′H-spiro[isoxazole-5,6′-[2,7]methanopyrido[1,2-a][1,4]diazonine]-10′-carboxamide] | 26.6 | 176 | 0.4 | – | 1.3 | – |
| C[C@H]1CC[C@]2(CC(C(C)(F)F)=NO2)[C@H]2CN1C(=O)c1c(O)c(=O)c(C(=O)NCc3c(F)cc(F)cc3F)cn12 [Example 71, (3′S,5S,7′R)-3-(1,1-difluoroethyl)-12′-hydroxy-3′-methyl-1′,11′-dioxo-N-(2,4,6-trifluorobenzyl)-1′,4′,5′,11′-tetrahydro-3′H,4H,7′H-spiro[isoxazole-5,6′-[2,7]methanopyrido[1,2-a][1,4]diazonine]-10′-carboxamide] | 32.1 | 82.4 | 0.2 | – | 3.3 | – |
